Tests used:
human HDAC1 = target: T1, human HDAC1 (Homo sapiens, UniProt Q13547); test: HDAC-inhibiting activity, coumarin-labeled acetylated histone peptide assay; type: biochemical; details: human HDAC1 from transfected 293T cells; 37° C., 30 minutes
T1 construct: made in house; host or cells: 293T cells (transient transfection, anti-FLAG immunoprecipitation, FLAG peptide elution)
Method: In carrying out HDAC-inhibiting activity measurements, HDAC solutions were prepared in the following manner. In each 100-mm dish, there were sowed 1×10^7 293T cells and, after 24 hours, they were transfected with a vector (5 μg) expressing human HDAC1 or HDAC4 or murine HDAC6 using the LipofectAmine 2000 reagent (Invitrogen). The human HDAC1 expression vector used was pcDNA3-HD1 (Yang, W. M., Yao, Y. L., Sun, J. M., Davie, J. R. & Seto, E. (1997) J. Biol. Chem. 272, 28001-28007), the human HDAC4 expression vector used was pcDNA3-HD4 (Fischle, W., Emiliani, S., Hendzel, M. J., Nagase, T., Nomura, N., Voelter, W. & Verdin, E. (1999) J. Biol. Chem. 274, 11713-11720), and the murine HDAC6 expression vector used was pcDNA3-mHDA2/HDAC6 (Verdel, A. & Khochbin, S. (1999) J. Biol. Chem. 274, 2440-2445).
After 24 hours of incubation, cells were recovered, washed with PBS, suspended in lysis buffer (50 mM Tris-HCl (pH 7.5), 120 mM NaCl, 5 mM EDTA, 0.5% Nonidet P-40), and sonicated. The supernatant was collected by centrifugation and then deprived of nonspecific proteins using Protein A/G plus agarose beads (Santa Cruz Biotechnologies, Inc.). Thereafter, anti-FLAG M2 antibody (Sigma-Aldrich Inc.) was added, and the reaction was allowed to proceed at 4° C. for 2 hours.
To this were added agarose beads, the reaction was allowed to proceed at 4° C. for 3 hours, and the agarose beads were washed three times with lysis buffer and then once with HD buffer (20 mM Tris-HCl (pH 8.0), 150 mM NaCl, 10% glycerol). The protein bound to the agarose beads was recovered by 1 hour of incubation with FLAG peptide (40 μg) (Sigma-Aldrich Inc.) in HD buffer (200 μl) at 4° C., and the liquid recovered was used, as a reactant solution, in the HDAC-inhibiting activity measurement described below.
HDAC-inhibiting activity evaluation in each in vitro system was made as follows. Each test compound was dissolved in DMSO, a stock solution with a concentration of 10 mM was thus prepared and this was used as an inhibitor stock solution. The assay was carried out by incubating the HDAC solution and a coumarin-labeled acetylated histone peptide solution in the presence of the test compound at 37° C. for 30 minutes (reaction volume 20 μl). To the reaction mixture was added 30 μl of trypsin, and the aminomethylcoumarin released by the enzymatic reaction was assayed using a fluorescent plate reader. In a negative control assay, no inhibitor was added to the reaction system and the same procedure was carried out.

[1] = tested on: colon cancer cell line HCT-116; test: Human cancer cell line panel, proliferation (sulforhodamine B); type: cell-based; details: HCT-116, 2 days of cultivation; read-out: 50% inhibitory concentration, proliferation
Excerpt: The characteristics of the human cancer cell proliferation-inhibiting activity of the compounds of the present invention were examined by the “method of evaluating the mechanisms of action of compounds using a panel of human cancer cell lines” as proposed by Yamori et al. (cf. Gan to Kagaku Ryoho (Cancer and Chemotherapy) 29 Suppl. II (2002) and Cancer Chemother. Pharmacol. 52 Suppl. I, S74-79 (2003)).
This system includes […] (7 lung cancer, 6 stomach cancer, 5 colon cancer, 5 ovarian cancer, 6 brain tumor, […], 2 kidney cancer and 2 prostate cancer cell lines as well as one melanoma line) and the method comprises measuring the in vitro drug susceptibilities of those cancer cell lines and expressing the differences in drug susceptibility among the respective cancer cell lines as a fingerprint. […] By utilizing this property, it is possible to estimate the mechanisms of action of a compound. The above method is also characterized in that an anticancer substance showing new and unique mechanisms of action different from those of the existing anticancer agents can be selected.
Cancer cells of each cell line are sowed onto a 96-well plate, a sample solution is added on the next day and, after 2 days of cultivation, the cell proliferation is measured by colorimetry using sulforhodamine B. The deviations in effective concentration for the respective cancer cell lines from the mean effective drug concentration for the 39 cancer cell lines subjected to measurement are calculated and shown in the form a fingerprint.

[2] = tested on: human wild type p21 promoter; test: p21 promoter assay (luciferase) in MFLL-9 cells; type: cell-based; details: 20 hours, concentration giving 1000% luminescence relative to negative control (100%)
Method: As an HDAC-inhibiting activity in an […] system, the following measurement was carried out using the p21 promoter inducing activity as an index. MFLL-9 cells used in the experiment are cells stably retaining a fusion gene (Dr. B. Vogelstaein) from the human wild type p21 promoter and luciferase gene. They were cultured using phenol red-free DMEM supplemented with 10% FBS in a steam-saturated incubator at 37° C. in the presence of 5% carbon dioxide. These MFLL-9 cells were sowed onto a 96-well microplate at a cell density of 2×10^4 cells/well and, after 24 hours of cultivation in 99 μl, per well, of the medium mentioned above, each test compound solution was added, followed by 20 hours of incubation. […] In a negative control, the same procedure was carried out without adding any inhibitor to the reaction system.
Using Luciferase Assay Reagent (Promega), the intensity of the luminescence due to the product of the enzymatic reaction involving luciferase expressed within cells was measured.

T1 sequence (Q13547 whole entry): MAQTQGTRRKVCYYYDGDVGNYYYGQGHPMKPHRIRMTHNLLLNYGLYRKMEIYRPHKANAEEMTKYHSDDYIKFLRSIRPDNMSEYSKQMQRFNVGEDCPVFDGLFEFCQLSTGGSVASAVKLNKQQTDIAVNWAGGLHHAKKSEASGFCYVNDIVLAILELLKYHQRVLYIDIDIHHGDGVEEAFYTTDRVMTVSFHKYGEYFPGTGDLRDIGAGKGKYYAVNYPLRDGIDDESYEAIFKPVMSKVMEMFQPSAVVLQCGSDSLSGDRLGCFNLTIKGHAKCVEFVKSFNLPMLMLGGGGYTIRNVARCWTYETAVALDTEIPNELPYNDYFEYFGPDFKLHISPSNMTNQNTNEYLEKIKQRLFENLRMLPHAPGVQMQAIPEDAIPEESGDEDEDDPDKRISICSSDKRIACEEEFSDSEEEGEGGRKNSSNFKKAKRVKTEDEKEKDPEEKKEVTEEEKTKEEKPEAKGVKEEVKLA

IC50 (human HDAC1) [µM]	IC50 [1] [µM]	SMILES	p21 promoter activity EC1000 [2] [µM]
0.05	≤ 0.1	CC1(C)NC(=O)[C@H](CCCCCSCc2ccncc2)NC(=O)[C@H]2CCCN2C(=O)[C@H](Cc2ccccc2)NC1=O [Ky-26, cyclo(-L-Am7(4-pyridylmethyl)-Aib-L-Phe-D-Pro-)]	0.010
–	≤ 0.01	CC(=O)CSCCCCC[C@@H]1NC(=O)[C@H]2CCCN2C(=O)[C@H](Cc2ccccc2)NC(=O)C(C)(C)NC1=O [Ky-72, cyclo(-L-Am7(acetonyl)-Aib-L-Phe-D-Pro-)]	0.031
